Experimental data taken from patent publication US20120244089A1, “USE OF THIAZOLE COMPOUND IN FLAVOR APPLICATIONS” (priority 2009, published 2012).
Entries after “also recorded” stand apart in the source; their conditions may differ.

Experiments:
[1] = Flavor evaluation in a dairy product sample (mixed berry yogurt); conditions: 5 ppb
Protocol: The flavor properties of 2-ethyl-4-methyl-2,5-dihydro-thiazole were evaluated in a dairy product sample. A mixed berry yogurt sample was used whose ingredients included cultured pasteurized grade A nonfat milk, high fructose corn syrup, modified corn starch, nonfat milk, kosher gelatin, corn starch, tricalcium phosphate, natural flavor, potassium sorbate added to maintain freshness, sucralose (splenda brand,) acesulfame potassium, colored with annatto extract, vitamin A acetate, and vitamin D3.

[2] = Flavor evaluation in an oatmeal sample; conditions: plain instant oatmeal
Protocol: The flavor properties of 2-ethyl-4-methyl-2,5-dihydro-thiazole were evaluated in an oatmeal sample. Commercially available plain instant oatmeal was used whose ingredients included whole grain rolled oats, calcium carbonate, salt, guar gum, caramel color, reduced iron, niacinamide, vitamin A, palmitate, pyridoxine, hydrochloride, riboflavin, thiamin mononitrate, and folic acid.

[3] = Flavor evaluation in a soft drink sample (orange soda); conditions: 5 ppb
Protocol: The flavor properties of 2-ethyl-4-methyl-2,5-dihydro-thiazole were evaluated in a soft drink sample. An orange soda was used whose ingredients included carbonated water, high fructose corn syrup, citric acid, potassium benzoate, gum acacia, natural flavor, ester gum, yellow 6, brominated vegetable oil, and red 40.

[4] = Flavor evaluation in a beef broth sample; conditions: 4 ppb
Protocol: The flavor properties of 2-ethyl-4-methyl-2,5-dihydro-thiazole were evaluated in a beef broth sample. The beef broth sample included beef broth and less than 1% of the following: salt, MSG, hydrolyzed corn protein, hydrolyzed soy protein, hydrolyzed wheat protein, dextrose, onion powder, autolyzed yeast extract, caramel color, partially hydrogenated soybean oil, natural flavor, thiamine hydrochloride, disodium inosinate, and disodium guanylate.

[5] = Flavor description in water; conditions: 1 ppb
[6] = Flavor evaluation in water by a trained sensory panel, 9-point hedonic scale; conditions: for Flavor Intensity: 9-point hedonic scale
Protocol: The flavor properties of 2-ethyl-4-methyl-2,5-dihydro-thiazole (Formula I), 4-ethyl-2-methyl-3-thiazole (Formula II), and 4-methyl-2-propyl-2,5-dihydro-thiazole (Formula III) in water were evaluated by a trained sensory panel using the 9-point hedonic scale.

In the case of `CCC1N=C(C)CS1` (stereo not shown) [Formula I, 2-ethyl-4-methyl-2,5-dihydro-thiazole], the Flavor effect [1] is reported as “boosted the fruity note and imparted a peach note”, the Flavor effect ([2]; 1 ppb) is reported as “added faint sulfurous note and synergized with grain note” and the Flavor effect ([2]; 5 ppb) is reported as “sulfurous and peach notes”. The Flavor effect [3] was “provided the feel of a tangerine soda and more natural taste and having cut the acidity”, the Flavor effect [4] was “boosted the roast note and imparted additional tropical note” and the Flavor notes [5] was “tropical fruit, catty, peach, and berry flavor notes”. For the same compound, the “Flavor Profile” value ([6]; 100 ppb) was “Tropical, fruit, peach,; also recorded: slightly catty, and meaty; also recorded: Very strong”, the “Flavor Intensity” value ([6]; 100 ppb) was 7.11 and the “Flavor character, comparison with analogs” value ([6]; summary of the panel results) was “unexpected strong and long-lasting fruity character; also recorded: superior to all other structurally closely related analogs”.
For `CCC1=NC(C)SC1` (stereo not shown) [Formula II, 4-Ethyl-2-methyl-2,5-dihydro-thiazole], the “Flavor Profile” value ([6]; 1 ppm) was “Nutty and cabbage” and the “Flavor Intensity” value ([6]; 1 ppm) was 1.
With `CCCC1N=C(C)CS1` (stereo not shown) [Formula III, 4-Methyl-2-propyl-2,5-dihydro-thiazole] the “Flavor Profile” value ([6]; 350 ppb) was “Sulfury, nutty, and skunk; also recorded: Strong” and the “Flavor Intensity” value ([6]; 350 ppb) was 3.33.
